Test results reported in ChEMBL document CHEMBL2203004, “New diterpene furanoids from the Antarctic lichen Huea sp” (Bioorg Med Chem Lett, 2012).
pIC50: −log10 of the molar value. Activity calls are given as the source filed them. The rule behind the calls is not given here.

Legend:
[1] = molecular target: T1, Tyrosine-protein phosphatase non-receptor type 1 (Homo sapiens) (UniProt P18031); assay: (§1) Inhibition of human recombinant PTP1B using p-nitrophenyl phosphate as substrate after 30 mins by spectrophotometric analysis
T1 sequence (whole entry): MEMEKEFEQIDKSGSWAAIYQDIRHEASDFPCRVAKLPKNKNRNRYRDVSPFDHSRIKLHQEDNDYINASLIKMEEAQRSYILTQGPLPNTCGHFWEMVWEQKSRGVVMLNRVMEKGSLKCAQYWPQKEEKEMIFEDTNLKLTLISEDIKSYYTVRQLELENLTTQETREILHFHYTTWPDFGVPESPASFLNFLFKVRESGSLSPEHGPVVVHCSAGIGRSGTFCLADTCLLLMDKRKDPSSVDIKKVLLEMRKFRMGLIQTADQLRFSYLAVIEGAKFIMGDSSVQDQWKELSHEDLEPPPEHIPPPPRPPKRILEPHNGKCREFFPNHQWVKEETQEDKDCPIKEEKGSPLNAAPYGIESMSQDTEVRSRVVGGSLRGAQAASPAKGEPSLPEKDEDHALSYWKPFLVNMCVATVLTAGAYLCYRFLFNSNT

[2] = molecular target: T2, Tyrosine-protein phosphatase non-receptor type 1 (Homo sapiens, UniProt P18031); assay: as §1
T2 sequence (P18031 whole entry): T1 sequence (whole entry)

[3] = molecular target: T1, Tyrosine-protein phosphatase non-receptor type 1 (Homo sapiens); assay: Noncompetitive inhibition of human recombinant PTP1B using p-nitrophenyl phosphate as substrate at 5.57 to 14.87 uM after 30 mins by Lineweaver-Burk plot analysis

**Q.** How did the inhibition [1] turn out when `C=CC(C)(O)C/C=C/[C@@]1(C)CC[C@@H](C(C)(O)CC(=O)C=C(C)C)O1` (relative stereo) was run?
**A.** Dose-dependent effect

**Q.** What about the pIC50 [2] of the same compound?
**A.** 4.86

**Q.** And the inhibition [3]?
**A.** Active
